Laboratory results from the NIST ThermoML archive (doi:10.1016/j.tca.2016.07.008).
Numbers after ± are expanded uncertainties.

What was measured:
[1] = Molar enthalpy of transition or fusion; details: Crystal; DSC
[2] = Crystal; DTA

Row | Structure (SMILES) | Molar enthalpy of transition or fusion [1] [kcal/mol] | Normal melting temperature [2] [°C]
1 | O=C(N/N=C/c1ccccc1O)c1ccncc1 [N'-(2-hydroxybenzylidene)isonicotinohydrazide] | 10.9 ± 0.239 | 248.20 ± 2
2 | COc1cccc(/C=N/NC(=O)c2ccncc2)c1O [N'-(2-hydroxy-3-methoxybenzylidene)isonicotinohydrazide] | 11.9 ± 0.263 | 236.70 ± 2
